Test results from US9637451B2, “Indole compound” (ASTELLAS PHARMA INC., priority 2014, dated 2017).

Legend:
[1] = biological target: T1, human MT1 receptor (Homo sapiens, UniProt P48039); experiment: Activation of human MT1 receptor in receptor-expressing cells, intracellular Ca2+ by FLIPR; type: cell-based
T1 construct: expressed in transfected cells

[2] = Brain-to-plasma concentration ratio in rat after intravenous administration; type: in vivo; conditions: brain and plasma, 15 minutes after intravenous administration
Method: At 15 minutes after intravenously administration of the test compound to the rats, the plasma and brain were collected. A 50% acetonitrile solution and an acetonitrile including internal standard material were added to the collected plasma. The collected brain was added to a 2-fold volume of PBS and homogenized. A 50% acetonitrile solution and an acetonitrile including internal standard material were added to the brain homogenate. The sample was centrifuged at 4° C. and 2150×g for 10 minutes, the supernatant was measured by LC-MS/MS, and the total concentration of the test compound in the brain (Cbrain) and the total concentration of the test compound in the plasma (Cplasma,t) were obtained. The brain-to-plasma concentrations ratio (Kp,brain) was calculated by the following equation.
The Kp,uu,CSF values and the Kp,brain values of ramelteon and some Example compounds of the present invention are shown in Table 4. Ex represents Example No. of the test compound. Unless otherwise specified, the Kp,uu,CSF was calculated using the fp values determined by an ultracentrifugation method. Further, N.T. represents Not Tested.

[3] = system: rat; experiment: Measurement test of electroencephalogram in rat (sleep-awake cycle); type: in vivo; conditions: oral
Description: After the completion of a quarantine period, the animals showing no abnormal health condition were subjected to an electroencephalogram electrode chronic implantation surgery with reference to brain atlas of Pellegrino (Plenum Press, New York (1979)), or the like. Under anesthesia with pentobarbital sodium, the rat was calibrated in a brain stereotaxic apparatus. In the frontal cortex, a monopolar silver ball electrode having a diameter of the tip of about 1 mm was placed on a hard film of the brain. Into the hippocampus, a laminated bipolar electrodes made of stainless steel was stuck. The reference electrode was screwed around the olfactory brain. Further, as for the electromyogram measurement, the lead wire was implanted in the both electrodes about 1 cm between the electrodes in the neck portion. The other end was exposed to the head portion subcutaneously. The electrodes and the lead wires were subjected to soldering with connector sockets and fixed to the skull with a dental resin or the like.
The rats were accommodated in a measurement cage under rat feeding and water supply on the morning of the day of administration, and accustomed to the measurement environment. After measuring the weight using an electronic scale balance, a lead wire and a connector socket were connected 30 minutes or more before the start of the electroencephalogram measurement, and the rat was accustomed in the measurement state under no anesthesia and no custody. The test compounds were intraperitoneally or orally administered to the rats and the electroencephalogram was measured continuously until 6 hours after the administration.
Ramelteon: solvent, 0.1 mg/kg, 1 mg/kg, and 10 mg/kg; intraperitoneal administration
Example 1: solvent, 3 mg/kg, 30 mg/kg, and 300 mg/kg; oral administration
Example 6: solvent, 10 mg/kg, 30 mg/kg, and 300 mg/kg; oral administration
The electrical signals of electroencephalogram and of electromyogram were applied to an electroencephalogram system and an electroencephalogram frequency analysis program of a personal computer was used to acquire the wave form of the electroencephalogram from the electroencephalograph system. In addition, the image signals of the electroencephalogram waveform were applied to an EEG video system and recorded on DVD-R using a DVD recorder. The behavior observation was carried out through a video camera at the same time as the electroencephalogram measurement and the images were also recorded on DVD-R using DVD recorder.
The presence or absence of abnormality in the electroencephalogram waveform in up to 6 hours from immediately after the administration, to each animal, respectively, was observed.
The analysis of a sleep-awake cycle was carried out using a sleep stage display-supporting program (MTS50061B, Japan Santec Corporation) based on the electroencephalogram waveforms acquired with an electroencephalogram frequency analysis program. Using the index of electroencephalogram, electromyogram, and behavior, the sleep steps were classified into an awake phase, a rest phase, a slow wave light sleep (S.W.L.S.) phase, a slow wave deep sleep (S.W.D.S.) phase, and a fast wave sleep (F.W.S., REM sleep) phase. Further, the rest phase, the slow wave light sleep phase, and the slow wave deep sleep phase were summed to determine a slow wave sleep (S.W.S., Non-REM sleep) phase. […] As the assessment criteria in the respective sleep steps, the criteria described in Japanese Pharmacological Journal 84, 25-89 (1984) were used.

T1 sequence (P48039 whole entry): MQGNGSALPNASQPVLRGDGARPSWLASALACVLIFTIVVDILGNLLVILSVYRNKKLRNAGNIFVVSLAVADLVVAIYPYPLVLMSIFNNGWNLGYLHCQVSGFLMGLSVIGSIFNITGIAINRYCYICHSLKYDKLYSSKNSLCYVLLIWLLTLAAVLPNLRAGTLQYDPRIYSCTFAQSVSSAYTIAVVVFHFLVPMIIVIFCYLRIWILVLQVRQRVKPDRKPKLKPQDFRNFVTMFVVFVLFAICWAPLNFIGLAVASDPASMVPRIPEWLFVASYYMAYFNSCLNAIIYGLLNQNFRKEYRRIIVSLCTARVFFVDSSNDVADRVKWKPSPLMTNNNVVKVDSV

EC50 ([1]; HEK293EBNA1 cells stably expressing human MT1 and Gq/i chimeric G protein, Ca2+ FLIPR): 7.5 nM
Emax ([1]; maximum reaction by ramelteon taken as 100%): 103%
Kp at 0.25 h [2]: 0.09
Compound: CC(=O)NCCc1c[nH]c2cc(F)c(OCCOc3ccn(C)n3)cc12 [Example 6, N-[2-(6-fluoro-5-{2-[(1-methyl-1H-pyrazol-3-yl)oxy]ethoxy}-1H-indol-3-yl)ethyl]acetamide]
occupancy in the respective sleep steps of electroencephalogram ([3]; 10 mg/kg and 30 mg/kg): no change in the occupancy in the respective sleep steps of electroencephalogram could be seen
sleep action ([3]; 10 mg/kg and 30 mg/kg): there was no sleep action
electroencephalogram ([3]; 300 mg/kg): a variation in the electroencephalogram was observed
